From patent publication US20260365670A1, “EGFR INHIBITORS AND USES THEREOF” (DIZAL (JIANGSU) PHARMACEUTICAL CO., LTD., priority 2022, published 2026)
Read-outs that look alike come from different tables or passages of the source.

Columns and labels:
[1] = system: Ba/F3 cells expressing EGFR mutations; assay: Cell proliferation assay, Ba/F3 cells expressing EGFR mutations (CellTiter-Glo, 72 hours); type: cell-based; details: CellTiter-Glo
Outline: (§1)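 Ba/F3 cells (5000/well) and PC-9 cells (500/well, RPMI1640 with 10% FBS) were plated overnight and then dosed with a compound concentration series. Viable cells were read at day 0 (G0) and after treatment (G3). GI50 came from curve fits of G0-corrected proliferation relative to DMSO.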

EGFR L858R = target: T1, EGFR L858R (Homo sapiens, UniProt P00533, L858R); assay: Inhibition of EGFR L858R biochemical enzymatic activity (HTRF); details: 1 mM ATP, 1 h, room temperature, read-out: IC50 (nM) @L858R
T1 construct: purchased Carna Bio
Outline: (§2)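 1 mM ATP, 1 μM biotin-TK peptide, 5 mM MgCl2, 1 mM MnCl2, 0.01% CHAPS, 1 mM DTT, 0.5% DMSO; 1 h RT; EDTA stop; HTRF 665/615 nm; IC50 via 4PL.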

EGFR Exon19Del = target: T2, EGFR Exon19Del (Homo sapiens, UniProt P00533, DEL746-750); assay: Inhibition of EGFR Exon19Del biochemical enzymatic activity (HTRF); details: EGFR Del19, 1 mM ATP, 1 h, room temperature, read-out: IC50 @Del19
T2 construct: purchased Carna Bio
T2 sequence (P00533 with tags, fused parts or gaps DEL746-750 limits assumed): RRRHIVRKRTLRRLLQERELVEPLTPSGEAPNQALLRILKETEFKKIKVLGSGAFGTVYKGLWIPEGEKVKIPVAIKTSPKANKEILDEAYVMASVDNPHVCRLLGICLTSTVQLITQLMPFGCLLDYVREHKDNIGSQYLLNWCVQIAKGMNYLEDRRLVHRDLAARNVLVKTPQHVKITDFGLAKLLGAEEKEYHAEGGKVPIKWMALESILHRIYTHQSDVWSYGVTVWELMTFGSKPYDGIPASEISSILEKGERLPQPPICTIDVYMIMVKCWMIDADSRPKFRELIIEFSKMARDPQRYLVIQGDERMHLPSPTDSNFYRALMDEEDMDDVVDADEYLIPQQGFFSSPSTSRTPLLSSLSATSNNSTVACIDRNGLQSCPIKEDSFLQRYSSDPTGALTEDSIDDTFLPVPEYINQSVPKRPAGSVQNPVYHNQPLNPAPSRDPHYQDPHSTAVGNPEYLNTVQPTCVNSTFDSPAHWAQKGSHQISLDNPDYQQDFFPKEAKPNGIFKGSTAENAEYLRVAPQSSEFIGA
Outline: as §2

EGFR[T790M/C797S/L858R] = target: T3, EGFR[T790M/C797S/L858R] (Homo sapiens, UniProt P00533, C797S/L858R/T790M); assay: Inhibition of EGFR[T790M/C797S/L858R] biochemical enzymatic activity (HTRF); details: EGFR T790M-C797S-L858R, 1 mM ATP, 1 h, room temperature, read-out: IC50 (nM) @T790M- C797S - L858R
T3 construct: purchased Carna Bio
Outline: as §2

EGFR wild type = target: T4, EGFR wild type (Homo sapiens, UniProt P00533); assay: Inhibition of EGFR wild type biochemical enzymatic activity (HTRF); details: EGFR WT, 1 mM ATP, 1 h, room temperature, read-out: IC50 (nM) @WT
T4 construct: purchased Carna Bio
Outline: as §2

[2] = target: T5, EGFR[T790M/C797S/d746-750] (Homo sapiens, UniProt P00533, C797S/DEL746-750/T790M); assay: Inhibition of EGFR[T790M/C797S/d746-750] biochemical enzymatic activity (HTRF); details: EGFR T790M-C797S-Del19, 1 mM ATP, 1 h, room temperature, read-out: IC50 (nM) @T790M - C797S - Del19
T5 construct: purchased Carna Bio
T5 sequence (P00533 with tags, fused parts or gaps DEL746-750/T790M/C797S limits assumed): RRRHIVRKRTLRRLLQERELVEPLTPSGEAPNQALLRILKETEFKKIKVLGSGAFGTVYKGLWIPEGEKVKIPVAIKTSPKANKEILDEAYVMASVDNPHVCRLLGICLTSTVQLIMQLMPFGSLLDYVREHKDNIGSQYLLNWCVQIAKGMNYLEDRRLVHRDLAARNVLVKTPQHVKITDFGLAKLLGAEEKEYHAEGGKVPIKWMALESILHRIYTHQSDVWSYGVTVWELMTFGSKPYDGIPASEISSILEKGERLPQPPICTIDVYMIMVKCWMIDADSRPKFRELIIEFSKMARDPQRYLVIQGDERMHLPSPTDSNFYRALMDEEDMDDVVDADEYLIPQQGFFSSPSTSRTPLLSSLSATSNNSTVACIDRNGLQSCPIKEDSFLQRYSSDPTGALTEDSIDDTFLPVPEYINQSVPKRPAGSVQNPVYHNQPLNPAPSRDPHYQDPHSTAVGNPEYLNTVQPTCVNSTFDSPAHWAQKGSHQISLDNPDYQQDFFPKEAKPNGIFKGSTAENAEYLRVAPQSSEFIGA
Outline: as §2

EGFR L858R/T790M = target: T6, EGFR L858R/T790M (Homo sapiens, UniProt P00533, L858R/T790M); assay: Inhibition of EGFR L858R/T790M biochemical enzymatic activity (HTRF); details: EGFR L858R-T790M, 1 mM ATP, 1 h, room temperature, read-out: IC50 (nM) @L858R-T790M
T6 construct: purchased Carna Bio
T6 sequence (P00533 25-1210 T790M/L858R): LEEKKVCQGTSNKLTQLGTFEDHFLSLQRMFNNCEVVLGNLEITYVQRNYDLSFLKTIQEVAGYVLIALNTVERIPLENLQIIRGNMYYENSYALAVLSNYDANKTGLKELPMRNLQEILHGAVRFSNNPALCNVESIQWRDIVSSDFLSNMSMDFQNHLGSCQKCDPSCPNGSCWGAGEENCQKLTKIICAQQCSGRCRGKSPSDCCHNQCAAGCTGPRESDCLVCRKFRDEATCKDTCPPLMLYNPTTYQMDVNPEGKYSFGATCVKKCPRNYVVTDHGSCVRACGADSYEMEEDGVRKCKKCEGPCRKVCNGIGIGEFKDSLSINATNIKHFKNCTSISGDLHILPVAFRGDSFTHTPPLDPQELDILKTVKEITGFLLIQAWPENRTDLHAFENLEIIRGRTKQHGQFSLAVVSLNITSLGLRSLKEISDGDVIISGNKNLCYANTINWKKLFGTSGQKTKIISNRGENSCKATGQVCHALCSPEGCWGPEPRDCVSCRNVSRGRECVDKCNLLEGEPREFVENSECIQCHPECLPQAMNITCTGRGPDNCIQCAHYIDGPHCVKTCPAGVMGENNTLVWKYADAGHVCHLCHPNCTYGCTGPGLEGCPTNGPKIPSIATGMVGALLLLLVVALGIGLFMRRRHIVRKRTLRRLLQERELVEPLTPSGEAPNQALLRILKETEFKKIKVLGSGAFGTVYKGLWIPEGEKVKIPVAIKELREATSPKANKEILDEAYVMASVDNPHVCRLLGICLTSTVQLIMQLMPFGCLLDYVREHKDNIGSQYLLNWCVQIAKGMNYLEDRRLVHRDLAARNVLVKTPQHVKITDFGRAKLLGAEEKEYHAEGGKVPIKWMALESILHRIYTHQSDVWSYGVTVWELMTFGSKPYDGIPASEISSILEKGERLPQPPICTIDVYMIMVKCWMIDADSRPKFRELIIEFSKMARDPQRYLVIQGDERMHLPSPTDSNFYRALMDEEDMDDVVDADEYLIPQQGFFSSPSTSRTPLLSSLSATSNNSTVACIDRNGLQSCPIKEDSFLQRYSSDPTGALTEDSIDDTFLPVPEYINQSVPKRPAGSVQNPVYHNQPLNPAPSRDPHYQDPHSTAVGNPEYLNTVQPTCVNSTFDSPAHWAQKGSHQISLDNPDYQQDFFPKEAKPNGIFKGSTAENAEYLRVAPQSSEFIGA
Outline: as §2

A-431 = assay: Cell proliferation GI50, A-431 cells (Table 6); type: cell-based
EGFR (d746-750 C797S) = target: T7, EGFR (d746-750 C797S) (Homo sapiens, UniProt P00533, C797S/DEL746-750); assay: Inhibition of EGFR (d746-750 C797S) biochemical enzymatic activity (HTRF); details: EGFR Del19-C797S, 1 mM ATP, 1 h, room temperature, read-out: IC50 (nM) @Del19-C797S
T7 construct: purchased signalchem
T7 sequence (P00533 with tags, fused parts or gaps DEL746-750/C797S limits assumed): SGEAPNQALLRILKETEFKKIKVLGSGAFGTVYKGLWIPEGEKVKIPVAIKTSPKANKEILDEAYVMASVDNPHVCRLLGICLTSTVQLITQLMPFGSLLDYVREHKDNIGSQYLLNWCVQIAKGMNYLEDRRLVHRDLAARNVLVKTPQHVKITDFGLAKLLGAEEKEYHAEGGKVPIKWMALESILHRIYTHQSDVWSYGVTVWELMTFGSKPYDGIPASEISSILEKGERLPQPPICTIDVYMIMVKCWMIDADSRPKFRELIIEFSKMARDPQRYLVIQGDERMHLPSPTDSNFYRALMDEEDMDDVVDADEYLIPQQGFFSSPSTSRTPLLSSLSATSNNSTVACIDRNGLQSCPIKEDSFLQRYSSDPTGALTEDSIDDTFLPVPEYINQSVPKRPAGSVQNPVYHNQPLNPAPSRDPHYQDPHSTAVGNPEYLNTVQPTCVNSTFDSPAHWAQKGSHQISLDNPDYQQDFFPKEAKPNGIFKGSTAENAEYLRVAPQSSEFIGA
Outline: as §2

EGFR (C797S L858R) = target: T8, EGFR (C797S L858R) (Homo sapiens, UniProt P00533, C797S/L858R); assay: Inhibition of EGFR (C797S L858R) biochemical enzymatic activity (HTRF); details: EGFR L858-C797S, 1 mM ATP, 1 h, room temperature, read-out: IC50 (nM) @L858-C797S
T8 construct: purchased signalchem
T8 sequence (P00533 25-1210 C797S/L858R): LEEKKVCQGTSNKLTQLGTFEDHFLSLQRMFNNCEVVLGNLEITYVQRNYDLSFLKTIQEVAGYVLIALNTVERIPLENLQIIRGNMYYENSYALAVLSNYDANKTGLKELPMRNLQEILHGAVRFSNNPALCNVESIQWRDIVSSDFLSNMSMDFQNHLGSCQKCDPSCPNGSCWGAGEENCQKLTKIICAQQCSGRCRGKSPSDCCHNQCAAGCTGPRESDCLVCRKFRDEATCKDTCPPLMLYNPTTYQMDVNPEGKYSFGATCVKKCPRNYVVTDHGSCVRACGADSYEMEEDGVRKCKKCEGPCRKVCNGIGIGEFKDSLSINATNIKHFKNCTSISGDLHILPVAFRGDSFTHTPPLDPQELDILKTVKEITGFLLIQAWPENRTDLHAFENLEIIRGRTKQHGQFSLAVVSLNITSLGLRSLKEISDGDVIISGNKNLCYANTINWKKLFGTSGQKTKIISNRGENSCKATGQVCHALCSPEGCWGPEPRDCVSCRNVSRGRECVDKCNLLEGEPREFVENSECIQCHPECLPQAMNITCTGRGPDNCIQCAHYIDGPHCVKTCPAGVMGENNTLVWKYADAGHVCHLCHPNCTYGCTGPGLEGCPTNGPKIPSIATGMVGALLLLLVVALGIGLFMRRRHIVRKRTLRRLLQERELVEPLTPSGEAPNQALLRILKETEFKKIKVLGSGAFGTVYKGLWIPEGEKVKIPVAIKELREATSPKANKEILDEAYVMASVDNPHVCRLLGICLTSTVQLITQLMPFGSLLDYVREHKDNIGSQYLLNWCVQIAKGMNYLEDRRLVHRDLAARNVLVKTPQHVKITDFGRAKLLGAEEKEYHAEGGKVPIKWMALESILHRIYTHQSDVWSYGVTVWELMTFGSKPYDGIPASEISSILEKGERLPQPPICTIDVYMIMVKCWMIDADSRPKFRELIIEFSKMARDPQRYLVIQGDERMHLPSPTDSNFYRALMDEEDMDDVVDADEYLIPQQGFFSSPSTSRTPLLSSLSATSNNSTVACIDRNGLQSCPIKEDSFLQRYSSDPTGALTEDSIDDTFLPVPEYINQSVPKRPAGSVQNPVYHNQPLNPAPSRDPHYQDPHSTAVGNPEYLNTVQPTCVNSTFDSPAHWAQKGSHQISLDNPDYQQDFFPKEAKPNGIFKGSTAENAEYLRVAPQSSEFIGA
Outline: as §2

PC-9 = assay: Cell proliferation assay, PC-9 cells (CellTiter-Glo, 72 hours); type: cell-based; details: PC9 cells, CellTiter-Glo, read-out: PC9 GI50
Outline: as §1

EGFR Exon19Del/T790M = target: T9, EGFR Exon19Del/T790M (Homo sapiens, UniProt P00533, DEL746-750/T790M); assay: Inhibition of EGFR Exon19Del/T790M biochemical enzymatic activity (HTRF); details: EGFR Del19-T790M, 1 mM ATP, 1 h, room temperature, read-out: IC50 (nM) @Del19-T790M
T9 construct: purchased Carna Bio
T9 sequence (P00533 with tags, fused parts or gaps DEL746-750/T790M limits assumed): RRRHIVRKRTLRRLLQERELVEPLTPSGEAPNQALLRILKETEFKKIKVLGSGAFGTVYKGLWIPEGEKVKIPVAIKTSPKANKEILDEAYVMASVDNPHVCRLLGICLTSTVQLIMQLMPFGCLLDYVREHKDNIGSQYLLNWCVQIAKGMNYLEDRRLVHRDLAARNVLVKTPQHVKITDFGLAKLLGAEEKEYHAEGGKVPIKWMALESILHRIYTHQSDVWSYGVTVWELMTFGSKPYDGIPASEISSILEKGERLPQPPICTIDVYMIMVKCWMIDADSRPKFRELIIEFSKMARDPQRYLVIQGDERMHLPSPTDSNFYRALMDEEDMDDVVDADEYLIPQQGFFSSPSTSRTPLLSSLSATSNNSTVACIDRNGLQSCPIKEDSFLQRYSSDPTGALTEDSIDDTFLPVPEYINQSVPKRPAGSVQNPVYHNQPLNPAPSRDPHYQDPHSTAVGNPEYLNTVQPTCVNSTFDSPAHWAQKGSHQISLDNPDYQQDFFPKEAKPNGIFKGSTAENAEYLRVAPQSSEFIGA
Outline: as §2

[3] = Mus musculus, BaF3, 72 h, BaF3 cells, EGFR DEL19-C797S, read-out: DEL19-C797S/BaF3 GI50
[4] = Mus musculus, BaF3, 72 h, BaF3 cells, EGFR DEL19-T790-C797S, read-out: DEL19-T790-C797S/BaF3 GI50
[5] = Mus musculus, BaF3, 72 h, BaF3 cells, EGFR L858R, read-out: L858R/BaF3 GI50
[6] = Mus musculus, BaF3, 72 h, BaF3 cells, EGFR L858R-C797S, read-out: L858R-C797S/BaF3 GI50
[7] = Mus musculus, BaF3, 72 h, BaF3 cells, EGFR L858R-T790-C797S, read-out: L858R-T790-C797S/BaF3 GI50
[8] = Mus musculus, BaF3, 72 h, BaF3 cells, EGFR L858R-T790M, read-out: L858R-T790M/BaF3 GI50
[9] = Mus musculus, BaF3, 72 h, EGFR DEL19-T790M, read-out: DEL19-T790M GI50
[10] = Homo sapiens, A-431, A-431 cells
[11] = BaF3 cells, EGFR DEL19-C797S, read-out: DEL19-C797S/BaF3 GI50
[12] = BaF3 cells, EGFR DEL19-T790-C797S, read-out: DEL19-T790-C797S/BaF3 GI50
[13] = BaF3 cells, EGFR L858R, read-out: L858R/BaF3 GI50
[14] = BaF3 cells, EGFR L858R-C797S, read-out: L858R-C797S/BaF3 GI50
[15] = BaF3 cells, EGFR L858R-T790-C797S, read-out: L858R-T790-C797S/BaF3 GI50
[16] = BaF3 cells, EGFR L858R-T790M, read-out: L858R-T790M/BaF3 GI50
[17] = EGFR DEL19-T790M, read-out: DEL19-T790M GI50

Compound | GI50 [1, 3] | GI50 [1, 4] | IC50 (EGFR L858R) | IC50 (EGFR Exon19Del) | IC50 (EGFR[T790M/C797S/L858R]) | IC50 (EGFR wild type) | IC50 [2] | IC50 (EGFR L858R/T790M) | IC50 (EGFR (d746-750 C797S)) | IC50 (EGFR (C797S L858R)) | IC50 (EGFR Exon19Del/T790M) | GI50 [1, 11] | GI50 [1, 12] | GI50 [1, 13] | GI50 [1, 14] | GI50 [1, 15] | GI50 [1, 16] | GI50 [1, 17] | GI50 (A-431; A-431 cells) | GI50 (PC-9) | further results
Cn1ncc2c1OCCN1CC3CCC(C3)(C1)n1c(nc3ccc(N4CCC(N5CC(F)C5)CC4)cc31)NC(=O)c1cc-2c(=O)n(C)c1 (single isomer, unassigned) [Example A87A] | – | – | 4480 nM | 842 nM | > 5000 nM | > 5000 nM | 4000 nM | > 5000 nM | 995 nM | > 5000 nM | > 5000 nM | 61 nM | 238 nM | 178 nM | 124 nM | 233 nM | 311 nM | 192 nM | 382 nM | 452 nM | –
CN1CC2(C1)CN(c1ccc3nc4n(c3c1)C13CCC(CN(CCOc5c(cnn5C)-c5cc(cn(C)c5=O)C(=O)N4)C1)C3)C2 (single isomer, unassigned) [Example A92B] | – | – | 3.2 nM | 1.5 nM | 2.2 nM | 16 nM | 2.3 nM | 2.3 nM | 1 nM | 2.6 nM | 2.6 nM | 0.5 nM | 1.1 nM | 0.82 nM | 1.6 nM | 0.94 nM | 3 nM | 1.2 nM | 842 nM | 9.8 nM | –
CN(C)C1CN(c2ccc3nc4n(c3c2)C23CCC(CN(CCOc5c(cnn5C)-c5cc(cn(C)c5=O)C(=O)N4)C2)C3)CC1F (single isomer, unassigned) [Example A84A, 15,21-Dimethyl-5-[4-fluoro-3-(N,N-dimethylamino)pyrrolidinyl]-23-oxa-2,9,11,15,20,21,26-heptaazaheptacyclo[24.4.1.1^{1,28}.1^{13,17}.0^{2,10}.0^{3,8}.0^{18,22}]tritriaconta-3,5,7,9,13,17(33),18(22),19-octaene-12,16-dione] | – | – | 830 nM | 226 nM | > 5000 nM | > 5000 nM | > 5000 nM | > 5000 nM | 258 nM | 1180 nM | > 5000 nM | 98 nM | 232 nM | 311 nM | 190 nM | 362 nM | 402 nM | 171 nM | 3990 nM | 214 nM | –
CN1CCCC12CN(c1ccc3nc4n(c3c1)C13CCC(CN(CCOc5c(cnn5C)-c5cc(cn(C)c5=O)C(=O)N4)C1)C3)C2 (single isomer, unassigned) [Example A76B] | – | – | 39 nM | 4.2 nM | 6.9 nM | 206 nM | 4.4 nM | 7 nM | 3.5 nM | 27 nM | 4.9 nM | 0.78 nM | 12 nM | 13 nM | 7.6 nM | 34 nM | 39 nM | 12 nM | 1640 nM | 23 nM | –
CN1CCC2(CCN(c3ccc4nc5n(c4c3)C34CCC(CN(CCOc6c(cnn6C)-c6cc(cn(C)c6=O)C(=O)N5)C3)C4)C2)C1 (single isomer, unassigned) [Example A81B] | – | – | 3.2 nM | 1.8 nM | 2.3 nM | 6.6 nM | 2.3 nM | 2.3 nM | 1.7 nM | 3.1 nM | 2.8 nM | 0.7 nM | 2.8 nM | 2.6 nM | 2.7 nM | 11 nM | 12 nM | 1.9 nM | 667 nM | 6.9 nM | –

Further lines, with some results ahead:

GI50 [1, 3] | GI50 [1, 4] | IC50 (EGFR L858R) | IC50 (EGFR Exon19Del) | IC50 (EGFR[T790M/C797S/L858R]) | IC50 (EGFR wild type) | IC50 [2] | IC50 (EGFR L858R/T790M) | IC50 (EGFR (d746-750 C797S)) | IC50 (EGFR (C797S L858R)) | IC50 (EGFR Exon19Del/T790M) | GI50 [1, 11] | GI50 [1, 12] | GI50 [1, 13] | GI50 [1, 14] | GI50 [1, 15] | GI50 [1, 16] | GI50 [1, 17] | GI50 (A-431; A-431 cells) | GI50 (PC-9) | Compound | further results
64 nM | 534 nM | > 5000 nM | 189 nM | > 5000 nM | > 5000 nM | 65 nM | 4530 nM | 175 nM | 2650 nM | 112 nM | – | – | – | – | – | – | – | – | – | C[C@@H]1CCCNc2c(cnn2C)-c2cc(cn(C)c2=O)C(=O)Nc2nc3ccc(N4CCN(C)CC4)cc3n2C1 [Example A57] | GI50 [1, 5]: 790 nM; GI50 [1, 6]: 474 nM; GI50 [1, 7]: 716 nM; GI50 [1, 8]: 356 nM; GI50 [1, 9]: 612 nM; GI50 (A-431; [10]): 8300 nM; GI50 (PC-9; Homo sapiens, PC-9, 72 h): 194 nM
12 nM | 31 nM | 414 nM | 18 nM | 32 nM | > 5000 nM | 3.4 nM | 195 nM | 12 nM | 167 nM | 5.7 nM | – | – | – | – | – | – | – | – | – | C[C@@H]1CCCOc2c(cnn2C)-c2cc(cn(C)c2=O)C(=O)Nc2nc3ccc4c(c3n2C1)CCNC4 [Example A102, (11R)-5,11,30-Trimethyl-7-oxa-4,5,13,18,24,26,30-heptaazahexacyclo[26.3.1.0^{2,6}.0^{13,25}.0^{14,23}.0^{15,20}]dotriaconta-1(32),2(6),3,14,20,22,24,28-octaene-27,31-dione] | GI50 [1, 5]: 79 nM; GI50 [1, 6]: 61 nM; GI50 [1, 7]: 37 nM; GI50 [1, 8]: 307 nM; GI50 [1, 9]: 59 nM; GI50 (A-431; [10]): 2910 nM; GI50 (PC-9; Homo sapiens, PC-9, 72 h): 115 nM
392 nM | 1160 nM | > 5000 nM | 849 nM | > 5000 nM | > 5000 nM | 560 nM | > 5000 nM | 628 nM | > 5000 nM | 704 nM | – | – | – | – | – | – | – | – | – | Cn1ncc2c1OCCN(C1COC1)CCn1c(nc3ccccc31)NC(=O)c1cc-2c(=O)n(C)c1 [Example A5, 5,26-Dimethyl-10-(oxetan-3-yl)-7-oxa-4,5,10,13,20,22,26-heptaazapentacyclo[22.3.1.0^{2,6}.0^{13,21}.0^{14,19}]octacosa-1(28),2(6),3,14,16,18,20,24-octaene-23,27-dione] | GI50 [1, 5]: 454 nM; GI50 [1, 6]: 764 nM; GI50 [1, 7]: 859 nM; GI50 [1, 8]: 961 nM; GI50 [1, 9]: 747 nM; GI50 (A-431; [10]): 2870 nM; GI50 (PC-9; Homo sapiens, PC-9, 72 h): 482 nM
